{
  "source": "patent US5710169A",
  "about": "“Therapeutic heterocycles” (Zeneca Limited, priority 1994, dated 1998)",
  "molecular_target": "T1, NK1 receptor (Oryctolagus cuniculus, UniProt G1SEI7)",
  "T1 construct": "The left and right branches of the pulmonary artery are isolated from the rest of the lung tissue; from tissue; host or cells: pulmonary artery ring segments with intact endothelium, male New Zealand white rabbit (Oryctolagus cuniculus)",
  "T1 sequence (G1SEI7 1-407)": "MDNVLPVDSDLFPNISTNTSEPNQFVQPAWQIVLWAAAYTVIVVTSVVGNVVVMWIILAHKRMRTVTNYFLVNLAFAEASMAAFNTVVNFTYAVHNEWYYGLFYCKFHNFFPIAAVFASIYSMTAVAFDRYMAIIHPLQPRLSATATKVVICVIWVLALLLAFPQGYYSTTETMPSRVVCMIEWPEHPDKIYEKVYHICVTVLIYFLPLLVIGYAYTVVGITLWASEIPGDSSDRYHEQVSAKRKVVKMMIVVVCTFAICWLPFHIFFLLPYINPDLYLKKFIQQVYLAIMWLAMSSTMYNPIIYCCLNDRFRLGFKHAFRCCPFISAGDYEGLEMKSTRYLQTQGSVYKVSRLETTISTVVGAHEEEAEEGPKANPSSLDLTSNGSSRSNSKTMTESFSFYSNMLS",
  "experiment": "Rabbit Pulmonary Artery: NK1 in vitro functional assay (Test C)",
  "type": "cell-based, New Zealand white rabbit",
  "details": "agonist ASMSP, read-out: pKB (-log molar KB) in Test C (converted)",
  "experimental": "Rabbit Pulmonary Artery: NK1 in vitro functional assay (Test C)\nMale New Zealand white rabbits are killed by lethal injection (Nembutal, 60 mg/kg into a cannulated ear vein). Heparin, 0.0025 ml/kg of a 1000 U/ml solution, is injected into the ear vein prior to nembutal in order to decrease blood coagulation. The left and right branches of the pulmonary artery are isolated from the rest of the lung tissue and cut in half to provide four ring segments from each animal. […] Changes in tension are measured on a Grass polygraph via Grass FT-03 force transducers. […]\nPotencies of the compounds are determined by calculating the apparent dissociation constants (KB) for each concentration tested using the standard equation: […]\nwhere dose ratio=antilog[(agonist-log molar EC50 without compound)-(agonist-log molar EC50 with compound)]. The KB values are converted to the negative logarithms and expressed as -log molar KB (i.e. pKB). […] The EC50 values are converted to negative logarithms and expressed as -log molar EC50. Maximum relaxation responses to ASMSP are determined by expressing the maximum response to the agonist as a percentage of the relaxation caused by papaverine.",
  "note": "Structures can show the parent of a compound that is named as a salt.",
  "data": [
    {"smiles": "COc1ccccc1CC(=O)N(C)CC(c1ccc(Cl)c(Cl)c1)N1CCC(O)(c2ccccc2)CC1", "note": "(stereo not shown) [Example 2, N-[2-(3,4-Dichlorophenyl)-2-(4-hydroxy-4-phenylpiperidino)ethyl]-N-methyl-2-methoxyphenylacetamide hydrochloride salt]", "values": [
      {"measurement": "Kb", "value": 631, "unit": "nM"}
    ]}
  ]
}
